Molecular target: T1, EP1 receptor (Mus musculus, UniProt P35375)
T1 sequence (P35375 1-405): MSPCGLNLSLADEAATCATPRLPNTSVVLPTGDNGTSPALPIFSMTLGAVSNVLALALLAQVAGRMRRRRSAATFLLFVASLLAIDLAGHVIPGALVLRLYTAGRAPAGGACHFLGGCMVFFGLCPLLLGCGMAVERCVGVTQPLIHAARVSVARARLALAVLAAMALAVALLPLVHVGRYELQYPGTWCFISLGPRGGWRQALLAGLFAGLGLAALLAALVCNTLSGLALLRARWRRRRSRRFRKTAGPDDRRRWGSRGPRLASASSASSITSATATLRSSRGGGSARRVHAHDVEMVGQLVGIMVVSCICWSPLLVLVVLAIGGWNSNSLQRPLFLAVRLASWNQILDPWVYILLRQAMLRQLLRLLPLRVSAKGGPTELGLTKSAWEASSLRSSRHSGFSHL
Test: Fura-2 intracellular Ca2+ dose-response in EP1-HEK cells
Type: cell-based

EC50: 12.8 nM
SMILES: CCCCC[C@H](O)/C=C/[C@H]1[C@H](O)CC(=O)[C@@H]1C/C=C\CCCC(=O)O [PGE2]

— article PMC4186417 (Pharmacology Research & Perspectives, 2014)
